Patent publication US9056104B2, “Dynamic inhibitors of heat shock protein 90” (THE UNIVERSITY OF KANSAS, priority 2011, dated 2015)
Read-outs that look alike come from different tables or passages of the source.

What was measured:
[1] = system: A549 (human lung adenocarcinoma epithelial); assay: Anti-proliferative activity against A549 cells; assay type: cell-based
Method: (§1) Once synthesized, the library of coumermycin A1 analogs containing the olefinic and saturated linkers, were evaluated for anti-proliferative activity against SKBr3 (estrogen receptor negative, Her2 over-expressing breast cancer cells), MCF-7 (estrogen receptor positive breast cancer cells), A549 (human lung adenocarcinoma epithelial), HT29 (Human colon adenocarcinoma grade II), and PC3mm2 (androgen receptor insensitive prostate cancer) cell lines. The activities produced provide insight into the optimal distance between binding sites and provide rationale for subsequent analog design. […] As shown, X is at the 6 position and Y is at the 8 position.

[2] = system: HT29 (Human colon adenocarcinoma grade II); assay: Anti-proliferative activity against HT29 cells; assay type: cell-based
Method: as §1

[3] = system: PC3mm2 (androgen receptor insensitive prostate cancer); assay: Anti-proliferative activity against PC3mm2 cells; assay type: cell-based
Method: as §1

[4] = system: SKBr3, MCF-7, A549, HT29 and PC3mm2 cell lines; assay: Anti-proliferative activity, cell lines not specified; assay type: cell-based; conditions: versus Compounds 65-70
Method: as §1

[5] = system: MCF-7 (estrogen receptor positive breast cancer cells); assay: Anti-proliferative activity against MCF-7 cells; assay type: cell-based; conditions: mean ± SD
Method: as §1, with “lines.” for “lines. The activities produced provide insight into the optimal distance between binding sites and provide rationale for subsequent analog design.”

[6] = system: SKBr3 (estrogen receptor negative, Her2 over-expressing breast cancer cells); assay: Anti-proliferative activity against SKBr3 cells; assay type: cell-based; conditions: mean ± SD
Method: as §1, with “lines.” for “lines. The activities produced provide insight into the optimal distance between binding sites and provide rationale for subsequent analog design.”

Solubility in DMSO = assay type: physicochemical
[7] = system: prostate cancer (PC3mm2, A549 and HT29) cell lines; assay: Anti-proliferative activity against prostate cancer cell lines (collective statements); assay type: cell-based
Method: as §1
(§2) The first series of analogs included compounds with simplified moieties in lieu of the noviose sugar, while subsequent analogs included varying coumarin, noviose, and tether modifications. Many of these coumermycin A1 analogs manifested potent anti-proliferative activity that correlated directly to HSP90 inhibition as evidenced by the degradation of HSP90-dependent client proteins. Replacement of the laborious, stereochemical complex, and expensive noviose sugar with commercially available piperidine moieties produced compounds that manifested ˜100-fold increase in antiproliferative activities.

[8] = system: prostate cancer (PC3mm2) cell lines; assay: as above; assay type: cell-based; conditions: low nanomolar, prostate cancers; read-out: anti-proliferative activities against prostate cancers
Method: as §1, §2

[9] = system: HSP90-dependent client proteins (Her-2, Raf, Akt); assay: Western blot analyses of HSP90 client protein degradation in MCF-7 breast cancer cells; assay type: cell-based; conditions: MCF-7 lysates, 24 hour treatment, 5x and 1/2 of antiproliferative IC50
Method: Since actin is not dependent on HSP90 for its maturation, actin levels should remain constant after treatment with an HSP90 inhibitor and is therefore used as a control. […] L represents a concentration ½ of the anti-proliferative IC50 value while H represents a concentration 5 times greater than the anti-proliferative IC50 value. GDA (500 nM) represents a positive control, while DMSO (0), vehicle, serves as the negative control. […]

[10] = system: breast cancer (SKBr3 and MCF7) cell lines; assay: Anti-proliferative activity against breast cancer cell lines (collective statements); assay type: cell-based; conditions: versus Compound 68
Method: as §1, §2

[11] = Table 5, read-out: Anti-Proliferation Activities Non-Noviosylated Biaryl Dimers, MCF-7
[12] = Table 5, read-out: Anti-Proliferation Activities Non-Noviosylated Biaryl Dimers, SKBr3
[13] = Table 4, read-out: Anti-Proliferation Activities of Biaryl Dimers, A549
[14] = Table 4, read-out: Anti-Proliferation Activities of Biaryl Dimers, HT29
[15] = Table 4, read-out: Anti-Proliferation Activities of Biaryl Dimers, PC3mm2
[16] = Table 4, read-out: Anti-Proliferation Activities of Biaryl Dimers, MCF-7
[17] = Table 4, read-out: Anti-Proliferation Activities of Biaryl Dimers, SKBr3

IC50 [5, 11] | IC50 [6, 12] | solubility in DMSO (Solubility in DMSO) | IC50 [1, 13] | IC50 [2, 14] | IC50 [3, 15] | IC50 [5, 16] | IC50 [6, 17] | SMILES | also measured
11700 ± 1600 nM | 9500 ± 1200 nM | inherent insolubility in DMSO | – | – | – | – | – | COc1ccc(C(=O)Nc2cc3ccc(OCCCN(C)C)c(C)c3oc2=O)cc1-c1cc(C(=O)Nc2cc3ccc(OCCCN(C)C)c(C)c3oc2=O)ccc1OC [Compound 72] | IC50 ([1]; Table 5, read-out: Anti-Proliferation Activities Non-Noviosylated Biaryl Dimers, A549): 93400 nM; IC50 ([2]; Table 5, read-out: Anti-Proliferation Activities Non-Noviosylated Biaryl Dimers, HT29): 62700 nM; IC50 ([3]; Table 5, read-out: Anti-Proliferation Activities Non-Noviosylated Biaryl Dimers, PC3mm2): 52300 nM; fold less active than the corresponding noviosylated coumarin-containing analogs (Compounds 65-70) [4]: ~10 fold
– | – | – | 210 nM | 270 nM | 270 nM | 880 ± 200 nM | 910 ± 120 nM | COc1ccc(C(=O)Nc2cc3ccc(OC4OC(C)(C)C(OC)C(O)C4O)c(OC)c3oc2=O)cc1-c1cc(C(=O)Nc2cc3ccc(OC4OC(C)(C)C(OC)C(O)C4O)c(OC)c3oc2=O)ccc1OC (stereo not shown) [Compound 70] | fold more active against prostate cancer cell lines than 8-Me analog Compound 66 ([7]; versus Compound 66): 100-150 fold
– | – | – | – | – | – | – | – | Cc1c(OC2CCN(C)CC2)ccc2cc(NC(=O)CCC/C=C/CCCC(=O)Nc3cc4ccc(OC5CCN(C)CC5)c(C)c4oc3=O)c(=O)oc12 [Compound 32] | IC50 ([1]; Table 2, read-out: Anti-Proliferation Activities of non-Noviosylated Olefin Dimers, A549): 220 nM; IC50 ([2]; Table 2, read-out: Anti-Proliferation Activities of non-Noviosylated Olefin Dimers, HT29): 240 nM; IC50 [8]: 200 to 400 nM; fold more active than any other dimer against prostate cancers ([7]; versus other non-noviosylated dimers): 10-20 fold; IC50 ([3]; Table 2, read-out: Anti-Proliferation Activities of non-Noviosylated Olefin Dimers, PC3mm2): 440 nM; IC50 ([5]; Table 2, read-out: Anti-Proliferation Activities of non-Noviosylated Olefin Dimers, MCF7): 630 ± 30 nM; degradation of Raf and Akt, Western blot [9]: caused degradation of Raf and Akt; effect on Her2, Western blot [9]: no effect on Her2; IC50 ([6]; Table 2, read-out: Anti-Proliferation Activities of non-Noviosylated Olefin Dimers, SKBr3): 890 ± 10 nM
– | – | – | 36800 nM | 36500 nM | 36700 nM | 760 ± 140 nM | 1160 ± 210 nM | COc1ccc(C(=O)Nc2cc3ccc(OC4OC(C)(C)C(OC)C(O)C4O)c(C)c3oc2=O)cc1-c1cc(C(=O)Nc2cc3ccc(OC4OC(C)(C)C(OC)C(O)C4O)c(C)c3oc2=O)ccc1OC (stereo not shown) [Compound 66] | fold more active than Compound 68 against breast cancer cell lines [10]: 2 fold
14200 ± 2300 nM | 4980 ± 700 nM | inherent insolubility in DMSO | – | – | – | – | – | COc1ccc(C(=O)Nc2cc3ccc(OC4CCN(C)CC4)c(C)c3oc2=O)cc1-c1cc(C(=O)Nc2cc3ccc(OC4CCN(C)CC4)c(C)c3oc2=O)ccc1OC [Compound 71] | –
